Reference: publication PMC9363195, “Preclinical Pharmacokinetics, Biodistribution, and Acute Toxicity Evaluation of Caerin 1.9 Peptide in Sprague Dawley Rats” (Evidence-based Complementary and Alternative Medicine : eCAM, 2022)
“Also recorded” adds a separate entry of the source. Read-outs that look alike come from different tables or passages of the source. Peptide text beside a SMILES is read from it.

Experiments:
[1] = Pharmacokinetics of single subcutaneous injection of F3 (1.0 mg/kg); type: in vivo, Sprague Dawley rats; settings: single s.c. 1.0 mg/kg, plasma, LC-MS/MS; for AUC(0-inf) / AUC(0-t) / Cmax / Tmax / half-life / CL/F / MRT: Sprague-Dawley, rat, sc; for CL/F: read-out: Cl_F_obs (clearance rate) (converted); for MRT: read-out: MRTInf_obs (mean residence time)
Procedure: A single subcutaneous injection of 1.0 mg/kg F3 was given to a total of 12 SD rats (6 females, 6 males). Before and after F3 administration, whole blood samples were collected at predetermined time intervals (0, 0.5, 1, 2, 4, 6, 8, 24, 48, 72, 96, 144, and 192 hr). At each time point, at least 0.5 ml blood samples were taken alternatively from 3M/3F rats.
The concentration of F3 in rat plasma was determined by liquid chromatography-tandem mass spectrometry, using the method established by Kanglong Huacheng Co., Ltd. The analyte was assayed by liquid chromatography coupled with the tandem mass spectrometry (LC-MS/MS) method. The LC-MS/MS system consisted of a Shimadzu HPLC system (Kyoto, Japan) and an LCMS-8060 instrument (serial no. 011105500332 AE). The following were the LC conditions: column, HALO ES-C18 2.7 µ C18 160A (50 × 2.1 mm); gradient elution at 0.5 mL/min with 5% acetonitrile in water containing 0.1% formic acid or 95% acetonitrile in water containing 0.1% formic acid; and injection volume of 10 µL. A multiple reaction monitoring (MRM) method was selected for quantitative analysis. For analyte and internal standard, the optimum transitions were 519.50 > 129.15 (five charges) and 649.15 > 120.10 (four charges), 393.20 > 373.25, and 237.15 > 194.15, respectively. The instrumental parameters were set as follows: nebulizing gas flow was 3 L/min; heating gas flow was 10 L/min; interface temperature was 300°C; DL temperature was 250°C; and heat block temperature was 400°C.
PK parameters were estimated by a noncompartmental model with the calculation model of “Linear Trapezoidal Linear Interpolation” using WinNonlin (Phoenix TM, version 8.1). If the plasma F3 was detected, the following pharmacokinetic parameters were measured and calculated: Cmax (maximum blood concentration), Tmax (peak time), T1/2 (elimination half-life), AUC (area under plasma concentration-time curve), Vz_F_obs (apparent distribution volume), Cl_F_obs (clearance rate), and MRTInf_obs (mean residence time).

[2] = tested on: SD rats; test: Functional observation (mortality, clinical signs) in acute toxicity study; type: in vivo, Sprague Dawley rats; settings: for mortality: single s.c. 1.0, 10.0, 100 mg/kg or 10.0 mg/kg daily x14 d, cage observation
Procedure: The mortality, general health status, and toxic reaction symptoms of the experimental groups were documented. Before the first day of F3 administration and during the experiments, a detailed clinical observation was carried out and recorded the changes in skin, eyes and mucous membrane, respiratory system, nervous system, activity, and behaviors of the rats. The body weight was measured and recorded before the first day of administration.
Forty SD rats (20 males and 20 females) were randomly divided into 4 groups (Figure 1). All rats were given F3 once on the day of the experiment.
Twelve SD rats (6 males, 6 females) were given a daily subcutaneous injection of F3 at a dose of 10.0 mg/kg for consecutive 14 days. The first day of administration was recorded as day 1.

With CC[C@H](C)[C@H](NC(=O)[C@H](CO)NC(=O)CNC(=O)[C@H](CC(C)C)NC(=O)[C@@H](NC(=O)CNC(=O)[C@H](Cc1ccccc1)NC(=O)[C@H](CC(C)C)NC(=O)CN)C(C)C)C(=O)N[C@@H](C)C(=O)N[C@@H](CCCCN)C(=O)N[C@@H](Cc1c[nH]cn1)C(=O)N[C@H](C(=O)N[C@@H](CC(C)C)C(=O)N1CCC[C@H]1C(=O)N[C@@H](Cc1c[nH]cn1)C(=O)N[C@H](C(=O)N[C@H](C(=O)N1CCC[C@H]1C(=O)N[C@H](C(=O)N[C@H](C(=O)N[C@@H](C)C(=O)N[C@@H](CCC(=O)O)C(=O)N[C@@H](CCCCN)C(=O)N[C@@H](CC(C)C)C(N)=O)[C@@H](C)CC)C(C)C)C(C)C)C(C)C)C(C)C [F3, Caerin 1.9] (H-GLFGVLGSIAKHVLPHVVPVIAEKL-NH2) the AUC(0-inf) ([1]; female SD rats) was 222 ng·h/mL, the AUC(0-t) ([1]; female SD rats) was 216 ng·h/mL and the Cmax ([1]; female SD rats) was 110 ng/mL. The Tmax ([1]; female SD rats) was 30 min, the half-life ([1]; female SD rats) was 40.6 min and the CL/F ([1]; female SD rats) was 75.1 mL/min/kg. The MRT ([1]; female SD rats) was 1.42 h, the AUC(0-inf) ([1]; male SD rats) was 686 ng·h/mL and the AUC(0-t) ([1]; male SD rats) was 661 ng·h/mL. For the same compound, the Cmax ([1]; male SD rats) was 256 ng/mL, the Tmax ([1]; male SD rats) was 60 min and the half-life ([1]; male SD rats) was 69.6 min. The CL/F ([1]; male SD rats) was 24.3 mL/min/kg, the MRT ([1]; male SD rats) was 2.05 h and the AUC_%Extrap_obs ([1]; female SD rats) was 2.88%. The T max ([1]; female SD rats) was 30 min, the T max ([1]; male SD rats) was 60 min and the “clinical observation: scabs at the injection site” value ([2]; s.c. 10.0 mg/kg daily x14 d, 6 M/6 F) was “scabs were discovered at the injection site in one female rat, three female rats, and two male rats on the 8th, 12th, and 15th days, respectively”. For the same compound, the “clinical observation (fur, eyes, mucosa, respiratory, circulatory, nervous system, behaviors)” value ([2]; single s.c. 1.0 mg/kg or 10.0 mg/kg) was “no abnormalities”, the “clinical observation: dorsal scabs” value ([2]; single s.c. 100.0 mg/kg, 5 M/5 F) was “one male and two female rats on day 8 and two female rats on day 15 developed dorsal scabs” and the mortality [2] was “no rats receiving F3 were found dead or dying; also recorded: No dead or dying rats were observed”. For the same compound, the mortality ([2]; listed as Caerin 1.9) was “does not cause mortality or organ malfunction”.
